# Experimental data: patent publication US10869931B2, “Polyethylene glycol-modified angiogenesis inhibitor HM-1 and application thereof” (NANJING ANJI BIOLOGICAL TECHNOLOGY CO.,LTD, priority 2016, dated 2020)
# Marks after values point to notes of the source that are not given here. Where no end group is shown, it is not given here.
# Columns and labels:
# [1] = system: Breast cancer tumor cells; experiment: MTT proliferation inhibition, breast cancer cells; type: cell-based, human; parameters: concentration or dose not given beside the values; details: 48 h
# How it was run: (§1)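 Tumour cells plated at 2×10^4 cells/mL, attached overnight, then exposed to dilutions of mPEG-HM-1 for 48 h at 37 °C, 5% CO2. MTT added 4 h, formazan dissolved in DMSO, absorbance 570/630 nm; growth inhibition = 1 − treated/untreated, three independent repeats, mean±SD.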
# [2] = in vivo
# Brain tumor cells = experiment: MTT proliferation inhibition, brain tumor cells; type: cell-based, human; parameters: concentration or dose not given beside the values; details: 48 h
# How it was run: as §1
# [3] = system: Human Umbilical Vein Endothelial Cells (HUVEC); experiment: Transwell migration of HUVEC; type: cell-based; details: 24 h
# How it was run: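 HUVEC (1×10^5/mL in blank medium) seeded with test solutions into Matrigel-coated transwell inserts, lower chamber holding medium with 5% FBS and 1% ECGS, 24 h at 37 °C. Migrated cells crystal-violet stained and counted in four fields; migration inhibition calculated from test versus blank-control counts, three independent repeats.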
# [4] = system: Head and neck cancer tumor cells; experiment: MTT proliferation inhibition, head and neck cancer cells; type: cell-based, human; parameters: concentration or dose not given beside the values; details: 48 h
# How it was run: as §1
# [5] = system: Cervical cancer tumor cells; experiment: MTT proliferation inhibition, cervical cancer cells; type: cell-based, human; parameters: concentration or dose not given beside the values; details: 48 h
# How it was run: as §1
# [6] = system: adjuvant arthritis (AA) SD rats; experiment: Adjuvant arthritis (AA) rat model; type: in vivo; details: for Joint swelling / Left and right paw swelling / Clinical score: AA SD rats; for Clinical score: maximum score 16
# [7] = system: Pancreatic cancer tumor cells; experiment: MTT proliferation inhibition, pancreatic cancer cells; type: cell-based, human; parameters: concentration or dose not given beside the values; details: 48 h
# How it was run: as §1
# [8] = system: retinal neovascular clusters in OIR C57/B16 mice; experiment: Retinal blood vessels in OIR mice; type: in vivo, mouse; details: for Neovascular clusters area: retina evaluated on day 17; for Inhibition rate: neovascular clusters area vs control, day 17
# From the text: Establishment of the OIR model: Exposure of young mouse and their mothers to 75% hyperoxic environment from day 7 to day 12 after birth of C57/B16 mice caused rapid disappearance of capillaries in the central retina. Upon returning to the indoor air on the 12th day, the retinal blood vessels, upon exposing to hyperoxia, rapidly disappeared, causing extensive abnormal neovascularization, and the central portion of the retina remained largely avascular for a long time. After the blood vessels disappeared completely, on the 13th day, physiological saline (negative control group), mPEG-SC-HM-1, mPEG2-NHS-HM-1, mPEG-ALD10k-HM-1, and mPEG-bALD-HM-1, were administered by intravitreal injection and retinal vessels were evaluated on day 17 (to label unclosed vessels, […] of Texas Red-labeled tomato lectin was injected into the left ventricle and circulated for 5 min).
# Lung cancer tumor cells = experiment: MTT proliferation inhibition, lung cancer cells; type: cell-based, human; parameters: concentration or dose not given beside the values; details: 48 h
# How it was run: as §1
# [9] = 40 mg/kg subcutaneous once every three days
# [10] = 100 μg intravitreal injection on day 13
# [11] = 80 mg/kg subcutaneous once every three days
# [12] = 10 mg/kg subcutaneous once every three days
# [13] = 20 mg/kg subcutaneous once every three days
Substance,rate of growth inhibition [1] [%],AUC0-∞ [2] [mg/L/h],CL [2] [mL/min/kg],MRT0-∞ [2] [h],T1/2β (half-life) [2] [h],rate of growth inhibition (Brain tumor cells) [%],cell migration number (Mean ± SD) ([3]; 70 μg/mL),inhibition rate of HUVEC migration ([3]; 70 μg/mL),cell migration number (Mean ± SD) ([3]; 80 μg/mL),inhibition rate of HUVEC migration ([3]; 80 μg/mL),cell migration number (Mean ± SD) ([3]; 90 μg/mL),inhibition rate of HUVEC migration ([3]; 90 μg/mL),cell migration number (Mean ± SD) ([3]; 100 μg/mL),inhibition rate of HUVEC migration ([3]; 100 μg/mL),rate of growth inhibition [4] [%],rate of growth inhibition [5] [%],"Joint swelling [6, 9] [mm]","Left and right paw swelling [6, 9] [mm]",rate of growth inhibition [7] [%],rate of growth inhibition (Lung cancer tumor cells) [%],other results
mPEG-ALD20k-Arg-Gly-Ala-Asp-Arg-Ala-Gly-Gly-Gly-Gly-Arg-Gly-Asp ({mPEG‑ALD 20 kDa}-RGADRAGGGGRGD) [mPEG-ALD20k-HM-1],65.17 ± 18.20,5899.46 ± 6.68,0.215 ± 0.177,18.65 ± 2.57,22.65 ± 0.21,56.89 ± 15.41,611.92 ± 52.08,40.53%*,507.07 ± 40.74,50.72%,403.15 ± 48.80,60.82%,564.59 ± 50.42,45.13%*,47.61 ± 10.68,75.66 ± 20.10,0.76 ± 0.21,3.77 ± 0.62,70.65 ± 20.29,66.38 ± 17.16,"Clinical score [6, 9]: 5.67 ± 1.08; Neovascular clusters area [8, 10]: 0.095 ± 0.009 mm^2; Inhibition rate ([8]; 100 μg intravitreal): 57.03%**"
mPEG-ALD40k-Arg-Gly-Ala-Asp-Arg-Ala-Gly-Gly-Gly-Gly-Arg-Gly-Asp ({mPEG‑ALD 40 kDa}-RGADRAGGGGRGD) [mPEG-ALD40k-HM-1],60.17 ± 19.24,5276.69 ± 9.84,0.108 ± 0.0967,16.52 ± 3.06,43.31 ± 0.22,50.69 ± 14.41,,,,,534.34 ± 56.62,48.07%*,510.47 ± 60.56,50.39%,42.18 ± 10.01,70.62 ± 19.14,,,65.31 ± 19.81,55.44 ± 16.13,"cell migration number (Mean ± SD) ([3]; 110 μg/mL): 471.88 ± 46.27; inhibition rate of HUVEC migration ([3]; 110 μg/mL): 54.14%; cell migration number (Mean ± SD) ([3]; 120 μg/mL): 565.31 ± 50.34; inhibition rate of HUVEC migration ([3]; 120 μg/mL): 45.06%*; Joint swelling [6, 11]: 0.73 ± 0.17 mm; Left and right paw swelling [6, 11]: 3.80 ± 0.65 mm; Clinical score [6, 11]: 5.76 ± 1.03; Neovascular clusters area ([8]; 200 μg intravitreal injection on day 13): 0.106 ± 0.010 mm^2; Inhibition rate ([8]; 200 μg intravitreal): 52.02%**"
mPEG-SC5k-Arg-Gly-Ala-Asp-Arg-Ala-Gly-Gly-Gly-Gly-Arg-Gly-Asp ({mPEG‑SC 5 kDa}-RGADRAGGGGRGD) [mPEG-SC5k-HM-1],48.13 ± 12.17,4391.72 ± 12.85,0.997 ± 0.18,7.68 ± 2.97,8.31 ± 0.12,42.18 ± 12.29,,,,,,,,,40.27 ± 11.36,51.11 ± 16.20,,,51.37 ± 16.23,45.33 ± 12.67,"cell migration number (Mean ± SD) ([3]; 30 μg/mL): 617.03 ± 60.97; inhibition rate of HUVEC migration ([3]; 30 μg/mL): 41.83%*; cell migration number (Mean ± SD) ([3]; 40 μg/mL): 517.43 ± 50.39; inhibition rate of HUVEC migration ([3]; 40 μg/mL): 51.22%; cell migration number (Mean ± SD) ([3]; 50 μg/mL): 469.59 ± 48.95; inhibition rate of HUVEC migration ([3]; 50 μg/mL): 55.73%; cell migration number (Mean ± SD) ([3]; 60 μg/mL): 601.65 ± 60.73; inhibition rate of HUVEC migration ([3]; 60 μg/mL): 43.28%*; Joint swelling [6, 12]: 0.74 ± 0.18 mm; Left and right paw swelling [6, 12]: 3.96 ± 0.71 mm; Clinical score [6, 12]: 5.95 ± 1.07; Neovascular clusters area ([8]; 25 μg intravitreal injection on day 13): 0.116 ± 0.012 mm^2; Inhibition rate ([8]; 25 μg intravitreal): 47.42%*"
mPEG-SC10k-Arg-Gly-Ala-Asp-Arg-Ala-Gly-Gly-Gly-Gly-Arg-Gly-Asp ({mPEG‑SC 10 kDa}-RGADRAGGGGRGD) [mPEG-SC10k-HM-1],50.16 ± 13.27,4671.86 ± 10.76,0.455 ± 0.0933,12.67 ± 5.84,15.18 ± 0.11,50.21 ± 12.19,439.89 ± 48.08,58.53%,580.33 ± 58.20,45.29%*,,,,,45.61 ± 11.12,57.17 ± 18.40,,,60.53 ± 17.16,50.29 ± 13.18,"cell migration number (Mean ± SD) ([3]; 50 μg/mL): 612.15 ± 50.34; inhibition rate of HUVEC migration ([3]; 50 μg/mL): 42.49%*; cell migration number (Mean ± SD) ([3]; 60 μg/mL): 527.08 ± 48.30; inhibition rate of HUVEC migration ([3]; 60 μg/mL): 50.31%; Joint swelling [6, 13]: 0.70 ± 0.18 mm; Left and right paw swelling [6, 13]: 3.81 ± 0.71 mm; Clinical score [6, 13]: 5.52 ± 1.07; in vivo immune protection effect on adjuvant arthritis model (in words) ([6]; AA rats, subcutaneous, once every three days, vs model group): has the most significant effect; Neovascular clusters area ([8]; 50 μg intravitreal injection on day 13): 0.096 ± 0.008 mm^2; Inhibition rate ([8]; 50 μg intravitreal): 56.56%**; inhibition rate of retinal neovascular clusters ([8]; OIR mice, 50 μg intravitreal injection, evaluated day 17): 56.56%"
mPEG-SC20k-Arg-Gly-Ala-Asp-Arg-Ala-Gly-Gly-Gly-Gly-Arg-Gly-Asp ({mPEG‑SC 20 kDa}-RGADRAGGGGRGD) [mPEG-SC20k-HM-1],52.18 ± 18.28,4310.23 ± 12.98,0.225 ± 0.155,17.64 ± 12.67,21.46 ± 0.24,55.56 ± 12.13,596.77 ± 50.58,43.74%*,499.29 ± 50.26,52.93%,415.07 ± 46.74,60.87%,559.75 ± 52.94,47.23%*,49.26 ± 10.32,62.93 ± 20.09,0.81 ± 0.20,3.75 ± 0.67,62.63 ± 18.13,53.87 ± 15.66,"Clinical score [6, 9]: 5.83 ± 1.01; Neovascular clusters area [8, 10]: 0.110 ± 0.010 mm^2; Inhibition rate ([8]; 100 μg intravitreal): 50.23%**"
